Like-named read-outs stand apart in the source and are kept apart here. Each block holds one compound with its values, some of them ahead of it.
How the values were obtained:
[1] = in vivo
Description: The LC-MS analysis was conducted using a Waters Acquity UPLC I-Class system (Waters, USA) coupled with a Xevo TQ-XS mass spectrometer equipped with a heated electrospray ionization source. Chromatographic separation was carried out on an Acquity UPLC HSS T3 C18 column (2.1 mm × 50 mm, 1.8 μm) from Waters, USA, with a flow rate of 0.4 mL/min and a column oven temperature of 40°C. The mobile phase consisted of 0.1% aqueous formic acid (A) and acetonitrile (B). The gradient elution program was as follows: 0–2.0 min, 10%–60% B; 2.0–2.2 min, 60%–95% B; 2.2–3.2 min, 95% B; 3.2–3.5 min, 95%–10% B; and 3.5–5.5 min, 10% B. Mass spectrometric detection was conducted using both positive and negative ionization modes. The source parameters used were as follows: a spray voltage of 1.00 KV, capillary temperature set at 500°C, desolvation flow maintained at 1000 L/h, cone gas (nitrogen) flow at 150 L/h, and a cone voltage of 5 V. The collision energy and precursor to production transition m/z for each analyte are found in Table 1. The data acquisition was performed in multiple reaction monitoring (MRM) mode.
Subsequently, a volume of 400 μL of acetonitrile was added to a 100 μL plasma sample. The resulting mixture was subjected to vortexing for 1 minute and centrifuged at a force of 21367 g for 10 minutes at a temperature of 4°C. The resulting supernatant was subjected to evaporation, followed by reconstitution in a volume of 100 μL of 10% acetonitrile. This reconstituted solution was then centrifuged at a force of 21367 g, and subsequently, a volume of 4 μL of the resulting supernatant was used for UPLC-ESI-MS/MS analysis.
The study used six Bama miniature pigs (70 days old, weighing 20 ± 2 kg) obtained from the Experimental Animal Center, Shandong Lvdu Bio-Sciences and Technology Co., Ltd. (Binzhou, China). The pigs were housed under controlled conditions with a temperature of 25 ± 1°C, relative humidity of 65% ± 10%, and a 12/12 h light/dark cycle. The pigs were provided with standard pig feed and water ad libitum, in accordance with the guidelines outlined in the National Institutes of Health Guide for Care and Use of Laboratory Animals. […] Blood samples (0.5 mL each) were collected from the jugular vein of each pig into heparinized tubes at specific time intervals (0.5 h, 1.0 h, 4.0 h, 8.0 h, 12.0 h, 15.0 h, and 24.0 h) following intragastric administration. The blood sample was promptly subjected to centrifugation at a force of 3400 × g for 10 minutes. The resulting supernatant plasma was collected and preserved at a temperature of −80°C until subsequent preparation for LC-MS analysis. The concentration-time data of the analytes were evaluated using either noncompartmental or compartmental methods with the aid of the PKSolver 2.0 software package, and subsequently, pharmacokinetic parameters were computed. The outcomes are presented as the arithmetic mean accompanied by the standard deviation (SD).

[2] = parameters: method as in PMID 33217008; details: rats, oral 10 mg/kg obacunone; cited from earlier work
[3] = parameters: method as in PMID 34331552; details: rats, fruit of Tetradium ruticarpum and licorice extracts together; cited from earlier work
[4] = parameters: method as in PMID 10891884; details: beagle dogs, oral 300 mg of palmatine; cited from earlier work
[5] = parameters: method as in PMID 28871816; details: rats, cited from earlier work
[6] = Bama miniature, pig, in vivo, po
[7] = Bama miniature, pig, in vivo, po, C max
[8] = pig plasma, oral BTWD 1.0 mL/kg
[9] = pig plasma, single oral BTWD 1.0 mL/kg, n = 6, mean ± SD
[10] = Bama miniature, pig, plasma, po, 1 mL/kg
[11] = Bama miniature, pig, plasma, po, 1 mL/kg, C max, pig plasma, single oral BTWD 1.0 mL/kg, n = 6, mean ± SD
[12] = Bama miniature, pig, in vivo, po, 1 mL/kg

Compound: COc1ccc2cc3[n+](cc2c1OC)CCc1cc2c(cc1-3)OCO2 [Berberine, berberine]
- AUC(0-inf) [1, 6]: 0.209 ± 0.0136 µg·h/mL
- AUC(0-t) [1, 6]: 0.202 ± 0.0127 µg·h/mL
- MRT [1, 6]: 11.07 ± 0.03 h
- Tmax [1, 6]: 12 h
- half-life [1, 6]: 3.14 ± 0.13 h
- Cmax [1, 7]: 0.0284 ± 0.00083 µg/mL
- Cmax (in words) ([1]; pig plasma, oral BTWD): low Cmax
- concentration-time profile (shape) [1, 8]: biphasic patterns
- CL/F [1, 9]: 14.82 ± 0.93 mL/h

Compound: COc1cc2c(cc1O)-c1cc3ccc(OC)c(OC)c3c[n+]1CC2 [Columbamine, columbamine]
- AUC(0-inf) [1, 10]: 0.031 ± 0.00136 µg·h/mL
- AUC(0-t) [1, 10]: 0.0284 ± 0.00131 µg·h/mL
- MRT [1, 10]: 12.5 ± 2.8 h
- Tmax [1, 10]: 12 h
- half-life [1, 10]: 6.74 ± 5.08 h
- Cmax [1, 11]: 0.0038 ± 8e-05 µg/mL
- Cmax (in words) ([1]; pig plasma, oral BTWD): low Cmax
- concentration-time profile (shape) [1, 8]: biphasic patterns
- plasma concentrations ([1]; pig plasma, oral BTWD 1.0 mL/kg, upper bound stated in text): below 10.0 ng/mL
- CL/F [1, 9]: 17.54 ± 0.76 mL/h

Compound: c1c2c(cc3c1OCO3)-c1cc3ccc4c(c3c[n+]1CC2)OCO4 [Coptisine chloride, coptisine chloride]
- AUC(0-inf) [1, 6]: 0.0698 ± 0.00142 µg·h/mL
- AUC(0-t) [1, 6]: 0.05988 ± 0.00015 µg·h/mL
- MRT [1, 6]: 14.3 ± 0.31 h
- Tmax [1, 6]: 12 h
- half-life [1, 6]: 5.7 ± 0.33 h
- plasma concentrations [1, 6]: below 10.0 ng/mL
- Cmax [1, 7]: 0.0059 ± 0.00015 µg/mL
- CL/F ([1]; pig, in vivo, po): 6.56 ± 0.14 mL/h
- Cmax (in words) ([1]; pig, in vivo, po): low Cmax
- concentration-time profile (shape) ([1]; pig, in vivo, po): biphasic patterns

Compound: O=c1ccc2cc(O)c(O)cc2o1 [Esculetin, esculetin]
- AUC(0-inf) [1, 10]: 0.994 ± 0.0278 µg·h/mL
- AUC(0-t) [1, 10]: 0.98 ± 0.0264 µg·h/mL
- MRT [1, 10]: 8.97 ± 0.08 h
- Tmax [1, 10]: 4 h
- half-life [1, 10]: 2.91 ± 0.08 h
- Cmax [1, 11]: 0.0781 ± 0.00168 µg/mL
- concentration-time profile (shape) [1, 8]: biphasic patterns
- C max [1, 9]: 0.07817 ± 0.00168 µg/mL
- CL/F [1, 9]: 0.76 ± 0.02 mL/h

Compound: O=c1ccc2cc(O[C@@H]3O[C@H](CO)[C@@H](O)[C@H](O)[C@H]3O)c(O)cc2o1 [Esculin, esculin]
- AUC(0-inf) [1, 12]: 0.876 ± 0.124 µg·h/mL
- AUC(0-t) [1, 12]: 0.531 ± 0.0528 µg·h/mL
- Cmax [1, 12]: 0.0664 ± 0.00191 µg/mL
- MRT [1, 12]: 25.1 ± 1.91 h
- Tmax [1, 12]: 1 h
- half-life [1, 12]: 16.6 ± 1.48 h
- concentration-time profile (shape) [1, 8]: biphasic patterns
- CL/F [1, 9]: 3.25 ± 0.43 mL/h

Compound: C=C(C)[C@@H]1CC[C@]2(C(=O)O[C@@H]3O[C@H](CO[C@@H]4O[C@H](CO)[C@@H](O[C@@H]5O[C@@H](C)[C@H](O)[C@@H](O)[C@H]5O)[C@H](O)[C@H]4O)[C@@H](O)[C@H](O)[C@H]3O)CC[C@]3(C)[C@H](CC[C@@H]4[C@@]5(C)CC[C@H](O[C@@H]6OC[C@H](O)[C@H](O)[C@H]6O[C@@H]6O[C@@H](C)[C@H](O)[C@@H](O)[C@H]6O)[C@@](C)(CO)[C@@H]5CC[C@]43C)[C@@H]12 [Pulchinenoside B4, pulchinenoside B4]
- absorption and elimination (in words) ([1]; pig plasma, oral BTWD): rapidly absorbed and eliminated from the plasma
- concentration-time profile (shape) [1, 8]: biphasic patterns
- AUC0− inf [1, 9]: 2.58065 ± 0.08909 µg·h/mL
- AUC0−t [1, 9]: 2.52563 ± 0.08716 µg·h/mL
- C max [1, 9]: 0.2767 ± 0.01054 µg/mL
- CL/F [1, 9]: 1.36 ± 0.05 mL/h
- MRT [1, 9]: 9.57 ± 0.14 h
- T max [1, 9]: 1.00 h
- t 1/2 [1, 9]: 3.27 ± 0.17 h

Further lines, with some results ahead:

- AUC(0-inf) [1, 6]: 0.159 ± 0.00933 µg·h/mL
- AUC(0-t) [1, 6]: 0.159 ± 0.00933 µg·h/mL
- MRT [1, 6]: 0.98 ± 0.01 h
- Tmax [1, 6]: 0.49 ± 0.01 h
- half-life [1, 6]: 0.33 h
- Cmax [1, 7]: 0.119 ± 0.00614 µg/mL
- concentration-time profile (shape) [1, 8]: biphasic patterns
- CL/F [1, 9]: 9.72 ± 0.56 mL/h
Compound: COc1cc2ccc(=O)oc2c(O)c1O [Fraxetin, fraxetin]
- absorption and elimination (in words) ([1]; pig plasma, oral BTWD): rapidly absorbed and eliminated from the plasma

- AUC(0-inf) [1, 6]: 0.0535 ± 0.00278 µg·h/mL
- AUC(0-t) [1, 6]: 0.0532 ± 0.0027 µg·h/mL
- MRT [1, 6]: 1.07 ± 0.04 h
- Tmax [1, 6]: 0.53 ± 0.02 h
- half-life [1, 6]: 0.36 ± 0.01 h
- Cmax [1, 7]: 0.0368 ± 0.00048 µg/mL
- CL/F [1, 9]: 36.38 ± 1.84 mL/h
Compound: COc1cc2ccc(=O)oc2c(O[C@@H]2O[C@H](CO)[C@@H](O)[C@H](O)[C@H]2O)c1O [Fraxin, fraxin]
- absorption and elimination (in words) ([1]; pig plasma, oral BTWD): rapidly absorbed and eliminated from the plasma

- AUC0− inf [1, 6]: 1.14651 ± 0.00738 µg·h/mL
- AUC(0-t) [1, 6]: 0.111 ± 0.0039 µg·h/mL
- MRT [1, 6]: 17.4 ± 3 h
- Tmax [1, 6]: 3.49 ± 0.07 h
- half-life [1, 6]: 0.88 ± 0.15 h
- Cmax [1, 7]: 0.00739 ± 0.00071 µg/mL
- CL/F ([1]; pig, in vivo, po): 0.37 ± 0.02 mL/h
- Cmax (in words) ([1]; pig, in vivo, po): low Cmax
Compound: CC1(C)OC(=O)C=C[C@]2(C)[C@H]3CC[C@@]4(C)[C@H](c5ccoc5)OC(=O)[C@H]5O[C@]54[C@]3(C)C(=O)C[C@@H]12 [Obacunone, obacunone]
- MRT [2]: 4.30 ± 0.16 h
- Tmax [2]: 1 to 2 h
- MRT [3]: 4.90 ± 2.60 h
- Tmax [3]: 1.67 ± 0.29 h

- AUC0− inf ([1]; pig, in vivo, po): 0.07339 ± 0.0028 µg·h/mL
- AUC0−t ([1]; pig, in vivo, po): 0.06972 ± 0.00262 µg·h/mL
- C max ([1]; pig, in vivo, po): 0.00818 ± 0.00021 µg/mL
- CL/F ([1]; pig, in vivo, po): 12.41 ± 0.47 mL/h
- Cmax (in words) ([1]; pig, in vivo, po): low Cmax
- MRT ([1]; pig, in vivo, po): 11.39 ± 0.14 h
- T max ([1]; pig, in vivo, po): 12.00 h
- concentration-time profile (shape) ([1]; pig, in vivo, po): biphasic patterns
- plasma concentrations ([1]; pig, in vivo, po): below 10.0 ng/mL
- t 1/2 ([1]; pig, in vivo, po): 3.81 ± 0.10 h
Compound: COc1cc2c(cc1O)C[C@H]1c3cc(O)c(OC)cc3CC[N@@+]1(C)C2 [Phellodendrine, phellodendrine]

- concentration at 12 h [1, 6]: 0.00579 µg/mL
Compound: COc1cc2c(cc1OC)-c1cc3ccc(OC)c(OC)c3c[n+]1CC2 [palmatine]
- Cmax [4]: 0.008 µg/mL
- Tmax [4]: 5 h
- plasma concentration (in words) ([1]; pig, in vivo, po): below the threshold required for the analysis of PK behavior
- Cmax ([5]; oral Coptis root granules): 0.00214 ± 0.00068 µg/mL
- Tmax ([5]; oral Coptis root granules): 0.36 ± 0.074 h
- Cmax ([5]; oral Shuanghua Baihe tablets): 0.0025 ± 0.00043 µg/mL
- Tmax ([5]; oral Shuanghua Baihe tablets): 3.22 ± 0.81 h

From PMC11101253, “Pharmacokinetic Properties of Baitouweng Decoction in Bama Miniature Pigs: Implications for Clinical Application in Humans” (International Journal of Analytical Chemistry, 2024)
